Assay results as given in patent US6774121B1, “Phospholipid prodrugs of anti-proliferative drugs” (D-Pharm, Ltd., priority 1999, dated 2004).

Tests used:
[1] = system: human leukemia cell line CCRF-CEM (CEM); experiment: MTT cell growth inhibition, CEM cells (Example 4); assay type: cell-based; settings: 72 hours, MTT assay; read-out: EC50, nMol CEM
Experimental: (§1) A series of methotrexate derivatives were screened for their inhibitory effect on cell growth. Three tumor cell lines were used for this screen: i) human leukemia cell line CCRF-CEM which is MTX-sensitive (herein denoted as CEM), ii) a mutant of CEM cell line which is MTX-resistant due to a mutation in the RFC (herein denoted as CEM-MTX; provided by Dr. […], Technion, Israel), and iii) rat C6 glioma cell line. Cells were seeded at a density of 10^4 cells/ml in RPMI medium supplemented with 10% FCS in 96 well plates. The cultured cells were incubated, during their linear growth phase, in the presence and absence of various concentrations of MTX derivatives. The tested compounds were prepared as 1 mM stock in absolute ethanol or DMSO and were diluted into the medium. The highest vehicle presence in the assay was 5% of the vehicle. After 72 hours at 37° C. the cytotoxic effect on the cells was estimated by using the colorimetric MTT assay (Mosmann (1983) J. Immunol Methods 65: 55-63) that measures mitochondrial reductase activity and serves for quantitative assessment of cellular viability. […] The EC50 values were calculated from dose response curves for each tested compound.

[2] = system: CEM-MTX (MTX-resistant mutant of CEM, mutation in the RFC); experiment: MTT cell growth inhibition, MTX-resistant CEM-MTX cells (Example 4); assay type: cell-based, human; settings: for EC50: 72 hours, MTT assay, read-out: EC50, nMol CEM-MTX
Experimental: A series of methotrexate derivatives were screened for their inhibitory effect on cell growth. Three tumor cell lines were used for this screen: i) human leukemia cell line CCRF-CEM which is MTX-sensitive (herein denoted as CEM), ii) a mutant of CEM cell line which is MTX-resistant due to a mutation in the RFC (herein denoted as CEM-MTX; provided by Dr. Y. Assraf, Technion, Israel), and iii) rat C6 glioma cell line.
Cells were seeded at a density of 10^4 cells/ml in RPMI medium supplemented with 10% FCS in 96 well plates. The cultured cells were incubated, during their linear growth phase, in the presence and absence of various concentrations of MTX derivatives. The tested compounds were prepared as 1 mM stock in absolute ethanol or DMSO and were diluted into the medium. The highest vehicle presence in the assay was 5% of the vehicle. After 72 hours at 37° C. the cytotoxic effect on the cells was estimated by using the colorimetric MTT assay (Mosmann (1983) J. Immunol Methods 65: 55-63) that measures mitochondrial reductase activity and serves for quantitative assessment of cellular viability. Drug concentration required for inhibiting the growth of 50% of cell population in culture over a 72 hour period incubation, is defined as EC50.
The EC50 values were calculated from dose response curves for each tested compound.

rat C6 glioma cell line = experiment: MTT cell growth inhibition, C6 glioma cells (Example 4); assay type: cell-based; settings: 72 hours, MTT assay; read-out: EC50, nMol C6 glioma
Experimental: as §1

[3] = system: Friend cells (an erythroleukemic cell line); experiment: MTT cytotoxicity, Friend cells (Example 5); assay type: cell-based; settings: 72 hour
Experimental: The toxicity of methotrexate derivatives of the invention (DP-MTX) was evaluated in an additional cell-culture system. The doses required to inhibit the growth of cultured Friend cells (an erythroleukemic cell line) by 50%, over a 72 hour period (ED50), were determined using a mitochondrial viability (MTT) endpoint assay.
Friend cells were seeded at a density of 10^4 cells/ml in RPMI medium supplemented with 10% FCS in 96 well plates. The cultured cells were incubated, during their linear growth phase, in the presence and absence of various concentrations of MTX derivatives. After 72 hours at 37° C., cell viability was estimated by using the colorimetric MTT assay.

PLA2 = settings: isoform not stated; read-out: IC50 of known inhibitors of PLA2; cited from earlier work
L1210 = experiment: MTT cytotoxicity, parent L1210 cells (Example 9); assay type: cell-based; settings: Mus musculus
[4] = system: RFC-mediated MTX-resistant cell line (L1210-MTX); experiment: MTT cytotoxicity, L1210-MTX cells (Example 9); assay type: cell-based; settings: Mus musculus

| SMILES | EC50 [1] [µM] | EC50 [2] [µM] | EC50 (rat C6 glioma cell line) [µM] | ED50 [3] [nmol] | also measured |
| --- | --- | --- | --- | --- | --- |
| CCCCCCCCCCCCOC(=O)[C@H](CCC(=O)O)NC(=O)c1ccc(N(C)Cc2cnc3nc(N)nc(N)c3n2)cc1 [α-C12H25-MTX, α:-dodecylate-MTX] | 0.088 | 9.42 | – | – | inhibiting the growth of the MTX-resistant cell line, CEM-MTX (in words) [2]: not effective |
| CCCCCCCCCCCCCCCCCC(=O)OC[C@H](COP(=O)([O-])OCC[N+](C)(C)C)OC(=O)CCCNC(=O)C(CCC(=O)O)NC(=O)c1ccc(N(C)Cc2cnc3nc(N)nc(N)c3n2)cc1 (stereo partly drawn) [DP-MTX-129, 1-Stearoyl-2-[4-(α-MTX amido)-Butanoyl]-sn-Glycero-3-phosphocholine] | 0.821 | 5.98 | 3.11 | 97.5 | – |
| CCCCCCCCCCCCCCCCCC(=O)OC[C@H](COP(=O)([O-])OCC[N+](C)(C)C)OC(=O)CCCCCCCNC(=O)C(CCC(=O)O)NC(=O)c1ccc(N(C)Cc2cnc3nc(N)nc(N)c3n2)cc1 (stereo partly drawn) [DP-MTX-142, 1-Stearoyl-2-[8-(α-MTX amido)-Octanoyl]-sn-Glycero-3-phosphocholine] | 6.34 | 11.6 | 36 | 3000 | – |
| CCN(CC)CCCC(C)Nc1c2ccc(Cl)cc2nc2ccc(OC)cc12 (stereo not drawn) [Quinacrine] | – | – | – | – | IC50 (PLA2): 390 µM |
| CCCCCCCCCCCCOC(=O)CC[C@H](NC(=O)c1ccc(N(C)Cc2cnc3nc(N)nc(N)c3n2)cc1)C(=O)O [γ-C12H25-MTX, γ-dodecylate-MTX] | 0.013 | 4.86 | – | – | inhibiting the growth of the MTX-resistant cell line, CEM-MTX (in words) [2]: not effective |
| CCCCCCCCCCCCCCCCCC(=O)OC[C@H](COP(=O)([O-])OCC[N+](C)(C)C)OC(=O)CCNC(=O)[C@H](CCC(=O)OCCCCCCCCCCCC)NC(=O)c1ccc(N(C)Cc2cnc3nc(N)nc(N)c3n2)cc1 [DP-MTX-128, 1-Stearoyl-2-[3-(γ-dodecylate-α-MTX amido)Propanoyl]-sn-Glycero-3-phosphocholine] | 0.771 | 1.6 | – | – | – |
| CCCCCCCCCCCCOC(=O)CC[C@H](NC(=O)c1ccc(N(C)Cc2cnc3nc(N)nc(N)c3n2)cc1)C(=O)OCCCCCCCCCCCC [α-C12H25-MTX-γ-C12H25, α-dodecylate-MTX-γ-dodecylate] | 4.86 | 5.09 | 0.807 | – | inhibiting the growth of the MTX-resistant cell line, CEM-MTX (in words) [2]: not effective |
| CCCCCCCCCCCCCCCCCC(=O)OC[C@H](COP(=O)([O-])OCC[N+](C)(C)C)OC(=O)CCCCCCCNC(=O)[C@H](CCC(=O)OCCCCCCCCCCCC)NC(=O)c1ccc(N(C)Cc2cnc3nc(N)nc(N)c3n2)cc1 [DP-MTX-127, 1-Stearoyl-2-[8-(γ-dodecylate-α-MTX amido)-Octanoyl]-sn-Glycero-3-phosphocholine] | – | – | 0.795 | – | – |
| CCCCCCCCCCCCCCCCCC(=O)OC[C@H](COP(=O)([O-])OCC[N+](C)(C)C)OC(=O)CCCCCNC(=O)C(CCC(=O)O)NC(=O)c1ccc(N(C)Cc2cnc3nc(N)nc(N)c3n2)cc1 (stereo partly drawn) [DP-MTX-106, 1-Stearoyl-2-[6-(α-MTX amido)-Hexanoyl]-sn-Glycero-3-phosphocholine] | 0.499 | 8.4 | 3.22 | 390 | – |
| CC(Cc1ccc(O)c(O)c1)C(C)Cc1ccc(O)c(O)c1 (stereo not drawn) [NDGA] | – | – | – | – | IC50 (PLA2): 40 µM |
| CCCCCCCCCCCCCCCCCC(=O)OC[C@H](COP(=O)([O-])OCC[N+](C)(C)C)OC(=O)CCNC(=O)C(CCC(=O)O)NC(=O)c1ccc(N(C)Cc2cnc3nc(N)nc(N)c3n2)cc1 (stereo partly drawn) [DP-MTX-93, 1-Stearoyl-2-[3-(α-MTX amido)-Propanoyl]-sn-Glycero-3-phosphocholine] | 0.027 | 4.65 | 0.417 | 97.5 | – |
| CC(=O)O[C@H]1C(=O)[C@@]2(C)[C@H]([C@H](OC(=O)c3ccccc3)[C@]3(O)C[C@H](OC(=O)[C@H](O)[C@@H](NC(=O)c4ccccc4)c4ccccc4)C(C)=C1C3(C)C)[C@]1(OC(C)=O)CO[C@@H]1C[C@@H]2O [TAX, Taxol] | – | – | – | – | EC50 (L1210): 0.008 µM; EC50 [4]: 0.008 µM |
